Here are results for 12 compounds from patent US20110301087A1, “CRF1 RECEPTOR COMPOUNDS” (priority 2008, published 2011).

The test has as its target T1, CRF1 (Homo sapiens, UniProt P34998).
T1 construct: endogenously expresses functional CRF1; endogenous in cells; host or cells: Y-79 human retinoblastoma cells
T1 sequence (P34998 24-415): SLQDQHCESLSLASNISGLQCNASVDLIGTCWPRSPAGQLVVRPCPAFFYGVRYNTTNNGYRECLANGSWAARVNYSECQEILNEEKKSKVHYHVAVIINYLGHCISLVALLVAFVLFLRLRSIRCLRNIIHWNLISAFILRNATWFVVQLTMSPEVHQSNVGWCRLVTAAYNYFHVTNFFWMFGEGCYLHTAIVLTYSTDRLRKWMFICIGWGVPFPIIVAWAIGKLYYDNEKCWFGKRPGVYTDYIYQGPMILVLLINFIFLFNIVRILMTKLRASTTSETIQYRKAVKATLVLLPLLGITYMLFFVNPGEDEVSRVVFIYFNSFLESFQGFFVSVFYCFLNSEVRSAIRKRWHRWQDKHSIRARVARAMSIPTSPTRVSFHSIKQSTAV
The experiment in a line: CRF1 assessment of cAMP (HTRF cAMP assay) in Y-79 cells, antagonist mode. The test is classed as cell-based. Particulars: Y79 cells; for IC50: CRF1 cAMP screening, against agonist; for inhibition at 0.3 µM: 300 nM pepducin against agonist dose response, read-out: % Inhibition (± SD). An excerpt: HTRF (homogeneous time resolved fluorescence) is a technology developed by Cisbio Bioassays based on TR-FRET (time-resolved fluorescence resonance energy transfer). Cisbio Bioassays has developed a wide selection of HTRF-based assays compatible with whole cells, thereby enabling functional assays run under more physiological conditions. cAMP kits are based on a competitive immunoassay using cryptate-labeled anti-cAMP antibody and d2-labeled cAMP. This assay allows the measurement of increase in intracellular cAMP upon Gs-coupled receptor activation as well as decrease in forskolin stimulated increase in cAMP upon Gi-coupled receptor activation. Cells expressing CRF1 endogenously or via transfection can be used to assess compound pharmacology using cAMP assays as a means to measure the activity of adenylyl cyclase resulting from CRF1 activation or inhibition.
An example of the use of the cAMP assay can be assessing CRF activation of CRF1 in Y-79, a human retinoblastoma cell line which endogenously expresses functional CRF1. Y-79 cells were seeded into 96-well half area black plates at 30K/well in Hank's balanced salt solution with 50 mM HEPES, 0.1% BSA, 200 uM IBMX. Compounds to be tested for agonist activity were added to cells, incubated for 30 minutes at 37 degrees C. and assayed for cAMP concentration. To test for antagonist activity, compounds to be tested were added to cells, followed by the addition of agonist at an experimentally determined optimal concentration, generally the EC80. Plates were incubated for 30 minutes at 37 degrees C. and assayed for cAMP. To determine concentration of cAMP in each well, d2-labeled cAMP in Conjugate/Lysis buffer was added to wells. This addition lysed the cells and input a known concentration of labeled cAMP. This was followed by the addition of anti-cAMP antibody conjugated to cryptate. FRET occurs when cryptate-labeled antibody binds to d2-labeled cAMP. Therefore, the specific signal is inversely proportional to the concentration of cAMP in the sample. Conversion of signal to concentration of cAMP in the well was accomplished by comparing the FRET signal of sample to a standard curve generated using known concentrations of cAMP.
(In TR-FRET formats the signal depends on donor and acceptor labels being close together.)

SMILES strings stand for the structures. Where a SMILES comes first, the peptide text is derived from it. [ ]: non-standard residue; d: D form. The star is where a group is joined. Palmitoyl = CCCCCCCCCCCCCCCC(=O)*; Nle = CCCC[C@H](N)C(=O)O A value given as a limit tells only on which side of the number the result lay.

In general, IC50 refers to the concentration that gives 50% inhibition. Broadly, the inhibition is the relative decrease from the control value, in per cent. For `CCCCCCCCCCCCCCCC(=O)N[C@H](C(=O)N[C@@H](CC(=O)O)C(=O)N[C@@H](CCCNC(=N)N)C(=O)N[C@@H](CC(C)C)C(=O)N[C@@H](CCCNC(=N)N)C(=O)N[C@@H](CCCCN)C(=O)N[C@@H](C)C(=O)N[C@@H](CCSC)C(=O)N[C@@H](Cc1ccccc1)C(=O)N[C@H](C(N)=O)[C@@H](C)CC)[C@@H](C)O` [Compound 50] (Palmitoyl-TDRLRKAMFI-NH2), the IC50 is greater than 10 µM and the inhibition at 0.3 µM worked out at 58%.
Turning to `CCCCCCCCCCCCCCCC(=O)N[C@H](C(=O)N[C@@H](CC(=O)O)C(=O)N[C@@H](CCCNC(=N)N)C(=O)N[C@@H](C)C(=O)N[C@@H](CCCNC(=N)N)C(=O)N[C@@H](CCCCN)C(=O)N[C@@H](Cc1c[nH]c2ccccc12)C(=O)N[C@@H](CCSC)C(=O)N[C@@H](Cc1ccccc1)C(=O)N[C@H](C(N)=O)[C@@H](C)CC)[C@@H](C)O` [Compound 47] (Palmitoyl-TDRARKWMFI-NH2), the IC50 lay within 1 to 5 µM and the inhibition at 0.3 µM turned out to be 62%.
In the case of `CCCCCCCCCCCCCCCC(=O)N[C@@H](CCCNC(=N)N)C(=O)N[C@@H](CC(C)C)C(=O)N[C@@H](CCCNC(=N)N)C(=O)N[C@@H](CO)C(=O)N[C@H](C(=O)N[C@@H](CCCNC(=N)N)C(=O)N[C@@H](CO)C(=O)N[C@@H](CC(C)C)C(=O)N[C@@H](CCCNC(=N)N)C(=O)N[C@@H](CC(N)=O)C(=O)N[C@H](C(=O)N[C@H](C(=O)N[C@@H](Cc1c[nH]cn1)C(=O)N[C@@H](Cc1c[nH]c2ccccc12)C(=O)N[C@@H](CC(N)=O)C(N)=O)[C@@H](C)CC)[C@@H](C)CC)[C@@H](C)CC` [Compound 5] (Palmitoyl-RLRSIRSLRNIIHWN-NH2), the IC50 is 1 to 5 µM and the inhibition at 0.3 µM was 54 ± 13%.
For `CCCCCCCCCCCCCCCC(=O)NCC(=O)N[C@@H](CO)C(=O)N[C@H](C(=O)N[C@@H](CC(=O)O)C(=O)N[C@@H](CCCNC(=N)N)C(=O)N[C@@H](CC(C)C)C(=O)N[C@@H](CCCNC(=N)N)C(=O)N[C@@H](CCCCN)C(=O)N[C@@H](Cc1c[nH]c2ccccc12)C(=O)N[C@@H](CCSC)C(=O)N[C@@H](Cc1ccccc1)C(=O)N[C@H](C(N)=O)[C@@H](C)CC)[C@@H](C)O` [Compound 29, Pal-GSTDRLRKWMFI-amide] (Palmitoyl-GSTDRLRKWMFI-NH2), the IC50 was 0.501 to 1 µM and the inhibition at 0.3 µM was 53 ± 14%.
On to `CCCCCCCCCCCCCCCC(=O)NCC(=O)N[C@@H](CO)C(=O)N[C@H](C(=O)N[C@@H](CCCNC(=N)N)C(=O)N[C@@H](C)C(=O)N[C@@H](CCCNC(=N)N)C(=O)N[C@H](C(=O)N[C@@H](C)C(=O)N[C@@H](CCCNC(=N)N)C(=O)N[C@@H](C)C(=O)N[C@@H](CCSC)C(N)=O)C(C)C)[C@@H](C)CC` [Compound 64] (Palmitoyl-GSIRARVARAM-NH2), for which the IC50 lay within 1 to 5 µM and the inhibition at 0.3 µM worked out at 55 ± 13%.
`CCCCCCCCCCCCCCCC(=O)NCC(=O)N[C@@H](CO)C(=O)NCC(=O)N[C@@H](CCCNC(=N)N)C(=O)N[C@@H](CC(C)C)C(=O)N[C@@H](CCCNC(=N)N)C(=O)N[C@@H](CCCCN)C(=O)N[C@@H](Cc1c[nH]c2ccccc12)C(=O)N[C@@H](CCSC)C(=O)N[C@@H](Cc1ccccc1)C(=O)N[C@H](C(N)=O)[C@@H](C)CC` [Compound 26] (Palmitoyl-GSGRLRKWMFI-NH2): the IC50 fell in the range of 1 to 5 µM and the inhibition at 0.3 µM turned out to be 63%.
For `CCCCCCCCCCCCCCCC(=O)N[C@H](C(=O)N[C@@H](CC(=O)O)C(=O)N[C@@H](CCCNC(=N)N)C(=O)N[C@@H](CC(C)C)C(=O)N[C@@H](CCCNC(=N)N)C(=O)N[C@@H](CCCCN)C(=O)N[C@@H](Cc1c[nH]c2ccccc12)C(=O)N[C@@H](CCSC)C(=O)N[C@@H](Cc1ccccc1)C(=O)N[C@@H](C)C(N)=O)[C@@H](C)O` [Compound 52] (Palmitoyl-TDRLRKWMFA-NH2), in that order: greater than 10 µM and 70%.
With `CCCCCCCCCCCCCCCC(=O)N[C@H](C(=O)N[C@@H](CC(=O)O)C(=O)N[C@@H](CCCNC(=N)N)C(=O)N[C@@H](CC(C)C)C(=O)N[C@@H](CCCNC(=N)N)C(=O)N[C@@H](CCCCN)C(=O)N[C@@H](Cc1c[nH]c2ccccc12)C(=O)N[C@@H](C)C(=O)N[C@@H](Cc1ccccc1)C(=O)N[C@H](C(N)=O)[C@@H](C)CC)[C@@H](C)O` [Compound 51] (Palmitoyl-TDRLRKWAFI-NH2), the IC50 was 0.501 to 1 µM and the inhibition at 0.3 µM amounted to 47 ± 7%.
On to `CCCCCCCCCCCCCCCC(=O)NCC(=O)N[C@@H](CO)C(=O)N[C@H](C(=O)N[C@@H](CC(=O)O)C(=O)N[C@@H](CCCNC(=N)N)C(=O)N[C@@H](CC(C)C)C(=O)N[C@@H](CCCNC(=N)N)C(=O)N[C@@H](CCCCN)C(=O)N[C@@H](C)C(=O)N[C@@H](CCCC)C(=O)N[C@@H](Cc1ccccc1)C(=O)N[C@H](C(N)=O)[C@@H](C)CC)[C@@H](C)O` [Compound 53] (Palmitoyl-GSTDRLRKA[Nle]FI-NH2), for which the inhibition at 0.3 µM came out at 50 ± 14%.
With `CCCCCCCCCCCCCCCC(=O)N[C@@H](C)C(=O)N[C@@H](CC(=O)O)C(=O)N[C@@H](CCCNC(=N)N)C(=O)N[C@@H](CC(C)C)C(=O)N[C@@H](CCCNC(=N)N)C(=O)N[C@@H](CCCCN)C(=O)N[C@@H](Cc1c[nH]c2ccccc12)C(=O)N[C@@H](CCSC)C(=O)N[C@@H](Cc1ccccc1)C(=O)N[C@H](C(N)=O)[C@@H](C)CC` [Compound 44] (Palmitoyl-ADRLRKWMFI-NH2), the IC50 was greater than 10 µM and the inhibition at 0.3 µM was 42%.
For the compound `CCCCCCCCCCCCCCCC(=O)N[C@@H](C)C(=O)N[C@@H](CO)C(=O)N[C@H](C(=O)N[C@H](C(=O)N[C@@H](CO)C(=O)N[C@@H](CCC(=O)O)C(=O)N[C@H](C(=O)N[C@H](C(=O)N[C@@H](CCC(N)=O)C(=O)N[C@@H](Cc1ccc(O)cc1)C(=O)N[C@@H](CCCNC(=N)N)C(=O)N[C@@H](CCCCN)C(=O)N[C@@H](C)C(=O)N[C@H](C(=O)N[C@@H](CCCCN)C(=O)N[C@@H](CO)C(N)=O)C(C)C)[C@@H](C)CC)[C@@H](C)O)[C@@H](C)O)[C@@H](C)O` [Compound 62] (Palmitoyl-ASTTSETIQYRKAVKS-NH2), the IC50 fell in the range of 1 to 5 µM and the inhibition at 0.3 µM came to 50%.
For `CCCCCCCCCCCCCCCC(=O)N[C@@H](CCCNC(=N)N)C(=O)N[C@H](C(=O)N[C@@H](CC(C)C)C(=O)N[C@@H](CCSC)C(=O)N[C@H](C(=O)N[C@@H](CCCCN)C(=O)N[C@@H](CC(C)C)C(=O)N[C@@H](CCCNC(=N)N)C(=O)N[C@@H](C)C(=O)N[C@@H](CO)C(=O)N[C@H](C(=O)N[C@H](C(=O)N[C@@H](CO)C(N)=O)[C@@H](C)O)[C@@H](C)O)[C@@H](C)O)[C@@H](C)CC` [Compound 58, Pal-RILMTKLRASTTS-amide] (Palmitoyl-RILMTKLRASTTS-NH2), the IC50 was 0.501 to 1 µM and the inhibition at 0.3 µM was determined as 35%.
